The assay concerns Streptococcus aureus. In words: Sterilization effect of hydrogen peroxide photolysis (laser 400±20 nm) with catalase activity inhibitor, viable count on BHI agar. As to conditions: only hydrogen peroxide, no laser, no scutellaria, H(+)L(−)O(−); FIG. 4. It counts as cell-based. Here is the method:
An experiment for examining an effect of the catalase activity inhibitor of enhancing a sterilization effect was conducted. In the experiment, […] which is a catalase-positive bacterium was used as a target of the sterilization. A bacterium suspension having a concentration of 10^7 cells/mL was prepared by using the bacterium and saline, and the suspension was used for the experiment. A semiconductor laser (product name: […] Experiment samples were prepared by using scutellaria as the catalase activity inhibitor, diluting the scutellaria with ultrapure water, followed by sterilization by filtration through a 0.22 μm filter, and then adding the scutellaria solution to the mixture liquids of bacterium suspension and hydrogen peroxide to attain final scutellaria concentrations of 0, 1, and 3 mg/mL. [table] The laser irradiation was performed immediately after preparing the experiment samples, and 50 μL of the sample after the irradiation and 50 μL of 5000 U/mL catalase were mixed to stop the reaction of hydrogen peroxide. After that, a 10-fold dilution series was prepared and was seeded on a BHI agar culture medium, followed by culturing under an aerophilic condition of 37° C. for 24 hours, and then evaluation of the sterilization effect was conducted. […]

The source of these data is US9504752B2, “Sterilizer, oral cavity sterilizer, sterilization method, sterilization apparatus, and sterilizer evaluation method” (AZ CO., LTD., priority 2011, dated 2016).

As for `OO` [hydrogen peroxide], the sterilization effect result was “no sterilization effect”.
